# In publication PMC10408569, “Recruitment of hexahydroquinoline as anticancer scaffold targeting inhibition of wild and mutants EGFR (EGFR^WT, EGFR^T790M, and EGFR^L858R)” (Journal of Enzyme Inhibition and Medicinal Chemistry, 2023):
# Experiments:
# CCRF-CEM = test: NCI-60 anticancer screening (SRB); type: cell-based; settings: Homo sapiens, leukemia, one dose 10 μM, read-out: Growth Inhibition Percentage (GI %)
# HL-60(TB) = test: NCI-60 anticancer screening (SRB); type: cell-based; settings: Homo sapiens, leukemia, one dose 10 μM, read-out: Growth Inhibition Percentage (GI %)
# K-562 = test: NCI-60 anticancer screening (SRB); type: cell-based; settings: Homo sapiens, K562; K-562, leukemia; one dose 10 μM; read-out: Growth Inhibition Percentage (GI %)
# SR = test: NCI-60 anticancer screening (SRB); type: cell-based; settings: Homo sapiens, leukemia, one dose 10 μM, read-out: Growth Inhibition Percentage (GI %)
# NCI-H226 = test: NCI-60 anticancer screening (SRB); type: cell-based; settings: Homo sapiens; NCI-H226, NSC lung cancer; one dose 10 μM; read-out: Growth Inhibition Percentage (GI %)
# NCI-H322M = test: NCI-60 anticancer screening (SRB); type: cell-based; settings: Homo sapiens, NSC lung cancer, one dose 10 μM, read-out: Growth Inhibition Percentage (GI %)
# COLO 205 = test: NCI-60 anticancer screening (SRB); type: cell-based; settings: Homo sapiens; COLO 205, colon cancer; one dose 10 μM; read-out: Growth Inhibition Percentage (GI %)
# HCT-116 = test: NCI-60 anticancer screening (SRB); type: cell-based; settings: Homo sapiens; HCT-116, colon cancer; one dose 10 μM; read-out: Growth Inhibition Percentage (GI %)
# HCT-15 = test: NCI-60 anticancer screening (SRB); type: cell-based; settings: Homo sapiens; HCT-15, colon cancer; one dose 10 μM; read-out: Growth Inhibition Percentage (GI %)
# KM 12 = test: NCI-60 anticancer screening (SRB); type: cell-based; settings: Homo sapiens, KM12; KM 12, colon cancer; one dose 10 μM; read-out: Growth Inhibition Percentage (GI %)
# SW-620 = test: NCI-60 anticancer screening (SRB); type: cell-based; settings: Homo sapiens; SW-620, colon cancer; one dose 10 μM; read-out: Growth Inhibition Percentage (GI %)
# SF-268 = test: NCI-60 anticancer screening (SRB); type: cell-based; settings: Homo sapiens; SF-268, CNS cancer; one dose 10 μM; read-out: Growth Inhibition Percentage (GI %)
# SNB-75 = test: NCI-60 anticancer screening (SRB); type: cell-based; settings: Homo sapiens; SNB-75, CNS cancer; one dose 10 μM; read-out: Growth Inhibition Percentage (GI %)
# U251 = test: NCI-60 anticancer screening (SRB); type: cell-based; settings: Homo sapiens, U-251; U251, CNS cancer; one dose 10 μM; read-out: Growth Inhibition Percentage (GI %)
# LOX IMVI = test: NCI-60 anticancer screening (SRB); type: cell-based; settings: Homo sapiens, melanoma, one dose 10 μM, read-out: Growth Inhibition Percentage (GI %)
# M14 = test: NCI-60 anticancer screening (SRB); type: cell-based; settings: Homo sapiens; M14, melanoma; one dose 10 μM; read-out: Growth Inhibition Percentage (GI %)
# SK-MEL-2 = test: NCI-60 anticancer screening (SRB); type: cell-based; settings: Homo sapiens; SK-MEL-2, melanoma; one dose 10 μM; read-out: Growth Inhibition Percentage (GI %)
# UACC-257 = test: NCI-60 anticancer screening (SRB); type: cell-based; settings: Homo sapiens; UACC-257, melanoma; one dose 10 μM; read-out: Growth Inhibition Percentage (GI %)
# IGROV1 = test: NCI-60 anticancer screening (SRB); type: cell-based; settings: Homo sapiens, IGROV-1; IGROV1, ovarian cancer; one dose 10 μM; read-out: Growth Inhibition Percentage (GI %)
# OVCAR-5 = test: NCI-60 anticancer screening (SRB); type: cell-based; settings: Homo sapiens; OVCAR-5, ovarian cancer; one dose 10 μM; read-out: Growth Inhibition Percentage (GI %)
# NCI/ADR-RES = test: NCI-60 anticancer screening (SRB); type: cell-based; settings: Homo sapiens, ovarian cancer, one dose 10 μM, read-out: Growth Inhibition Percentage (GI %)
# SK-OV-3 = test: NCI-60 anticancer screening (SRB); type: cell-based; settings: Homo sapiens; SK-OV-3, ovarian cancer; one dose 10 μM; read-out: Growth Inhibition Percentage (GI %)
# 786-0 = test: NCI-60 anticancer screening (SRB); type: cell-based; settings: Homo sapiens; 786-0, renal cancer; one dose 10 μM; read-out: Growth Inhibition Percentage (GI %)
# A498 = test: NCI-60 anticancer screening (SRB); type: cell-based; settings: Homo sapiens; A498, renal cancer; one dose 10 μM; read-out: Growth Inhibition Percentage (GI %)
# RXF 393 = test: NCI-60 anticancer screening (SRB); type: cell-based; settings: Homo sapiens; RXF 393, renal cancer; one dose 10 μM; read-out: Growth Inhibition Percentage (GI %)
# TK-10 = test: NCI-60 anticancer screening (SRB); type: cell-based; settings: Homo sapiens; TK-10, renal cancer; one dose 10 μM; read-out: Growth Inhibition Percentage (GI %)
# PC-3 = test: NCI-60 anticancer screening (SRB); type: cell-based; settings: Homo sapiens; PC-3, prostate cancer; one dose 10 μM; read-out: Growth Inhibition Percentage (GI %)
# MCF7 = test: NCI-60 anticancer screening (SRB); type: cell-based; settings: Homo sapiens; MCF7, breast cancer; one dose 10 μM; read-out: Growth Inhibition Percentage (GI %)
# MDA-MB-231 = test: NCI-60 anticancer screening (SRB); type: cell-based; settings: Homo sapiens; MDA-MB-231, breast cancer; one dose 10 μM; read-out: Growth Inhibition Percentage (GI %)
# BT-549 = test: NCI-60 anticancer screening (SRB); type: cell-based; settings: Homo sapiens; BT-549, breast cancer; one dose 10 μM; read-out: Growth Inhibition Percentage (GI %)
# T-47D = test: NCI-60 anticancer screening (SRB); type: cell-based; settings: Homo sapiens, T47D, breast cancer, one dose 10 μM, read-out: Growth Inhibition Percentage (GI %)
# MDA-MB-468 = test: NCI-60 anticancer screening (SRB); type: cell-based; settings: Homo sapiens; MDA-MB-468, breast cancer; one dose 10 μM; read-out: Growth Inhibition Percentage (GI %)
# NCI 60 cancer cell lines = test: NCI-60 anticancer screening (SRB), whole panel; type: cell-based, human; settings: mean across the NCI-60 panel; one dose 10 μM
Structure (SMILES),inhibition at 10 µM (CCRF-CEM),inhibition at 10 µM (HL-60(TB)),inhibition at 10 µM (K-562),inhibition at 10 µM (SR),inhibition at 10 µM (NCI-H226),inhibition at 10 µM (NCI-H322M),inhibition at 10 µM (COLO 205),inhibition at 10 µM (HCT-116),inhibition at 10 µM (HCT-15),inhibition at 10 µM (KM 12),inhibition at 10 µM (SW-620),inhibition at 10 µM (SF-268),inhibition at 10 µM (SNB-75),inhibition at 10 µM (U251),inhibition at 10 µM (LOX IMVI),inhibition at 10 µM (M14),inhibition at 10 µM (SK-MEL-2),inhibition at 10 µM (UACC-257),inhibition at 10 µM (IGROV1),inhibition at 10 µM (OVCAR-5),further results
"CCOC(=O)C1=C(N)N(c2ccc(Cl)cc2)C2=C(C(=O)CC(C)(C)C2)C1c1ccc(Cl)cc1 (racemic) [8e, (±)-Ethyl 2-amino-1,4-bis (4-chlorophenyl)-7,7-dimethyl-5-oxo-1,4,5,6,7,8-hexahydroquinoline-3-carboxylate]",61%,62%,63%,52%,< 10%,< 10%,53%,45%,58%,38%,33%,22%,27%,31%,11%,49%,< 10%,56%,12%,< 10%,inhibition at 10 µM (NCI/ADR-RES): 32%; inhibition at 10 µM (SK-OV-3): < 10%; inhibition at 10 µM (786-0): 23%; inhibition at 10 µM (A498): < 10%; inhibition at 10 µM (RXF 393): 35%; inhibition at 10 µM (TK-10): 11%; inhibition at 10 µM (PC-3): 58%; inhibition at 10 µM (MCF7): 56%; inhibition at 10 µM (MDA-MB-231): 24%; inhibition at 10 µM (BT-549): 21%; inhibition at 10 µM (T-47D): 42%; inhibition at 10 µM (MDA-MB-468): 33%; GI % mean (NCI 60 cancer cell lines): 32%
"CCOC(=O)C1=C(N)N(c2ccccc2)C2=C(C(=O)CC(C)(C)C2)C1c1ccc(OC)cc1 (racemic) [8f, (±)-Ethyl2-amino-4–(4-methoxyphenyl)-7,7-dimethyl-5-oxo-1-phenyl-1,4,5,6,7,8-hexahydroquinoline-3-carboxylate]",< 10%,< 10%,< 10%,18%,12%,< 10%,< 10%,14%,< 10%,< 10%,< 10%,< 10%,< 10%,< 10%,< 10%,< 10%,16%,< 10%,< 10%,< 10%,inhibition at 10 µM (NCI/ADR-RES): < 10%; inhibition at 10 µM (SK-OV-3): < 10%; inhibition at 10 µM (786-0): 11%; inhibition at 10 µM (A498): < 10%; inhibition at 10 µM (RXF 393): < 10%; inhibition at 10 µM (TK-10): < 10%; inhibition at 10 µM (PC-3): 18%; inhibition at 10 µM (MCF7): 13%; inhibition at 10 µM (MDA-MB-231): < 10%; inhibition at 10 µM (BT-549): < 10%; inhibition at 10 µM (T-47D): 11%; inhibition at 10 µM (MDA-MB-468): < 10%; GI % mean (NCI 60 cancer cell lines): - ((-) = GI % mean less than 10)
